The target of one test is Nitric oxide synthase 1 (Rattus norvegicus, UniProt P29476). Briefly: Inhibition of rat recombinant nNOS expressed in Escherichia coli by hemoglobin capture assay.
A further test deals with T1, Nitric oxide synthase 3 (Bos taurus, UniProt P29473).
T1 sequence (P29473 whole entry): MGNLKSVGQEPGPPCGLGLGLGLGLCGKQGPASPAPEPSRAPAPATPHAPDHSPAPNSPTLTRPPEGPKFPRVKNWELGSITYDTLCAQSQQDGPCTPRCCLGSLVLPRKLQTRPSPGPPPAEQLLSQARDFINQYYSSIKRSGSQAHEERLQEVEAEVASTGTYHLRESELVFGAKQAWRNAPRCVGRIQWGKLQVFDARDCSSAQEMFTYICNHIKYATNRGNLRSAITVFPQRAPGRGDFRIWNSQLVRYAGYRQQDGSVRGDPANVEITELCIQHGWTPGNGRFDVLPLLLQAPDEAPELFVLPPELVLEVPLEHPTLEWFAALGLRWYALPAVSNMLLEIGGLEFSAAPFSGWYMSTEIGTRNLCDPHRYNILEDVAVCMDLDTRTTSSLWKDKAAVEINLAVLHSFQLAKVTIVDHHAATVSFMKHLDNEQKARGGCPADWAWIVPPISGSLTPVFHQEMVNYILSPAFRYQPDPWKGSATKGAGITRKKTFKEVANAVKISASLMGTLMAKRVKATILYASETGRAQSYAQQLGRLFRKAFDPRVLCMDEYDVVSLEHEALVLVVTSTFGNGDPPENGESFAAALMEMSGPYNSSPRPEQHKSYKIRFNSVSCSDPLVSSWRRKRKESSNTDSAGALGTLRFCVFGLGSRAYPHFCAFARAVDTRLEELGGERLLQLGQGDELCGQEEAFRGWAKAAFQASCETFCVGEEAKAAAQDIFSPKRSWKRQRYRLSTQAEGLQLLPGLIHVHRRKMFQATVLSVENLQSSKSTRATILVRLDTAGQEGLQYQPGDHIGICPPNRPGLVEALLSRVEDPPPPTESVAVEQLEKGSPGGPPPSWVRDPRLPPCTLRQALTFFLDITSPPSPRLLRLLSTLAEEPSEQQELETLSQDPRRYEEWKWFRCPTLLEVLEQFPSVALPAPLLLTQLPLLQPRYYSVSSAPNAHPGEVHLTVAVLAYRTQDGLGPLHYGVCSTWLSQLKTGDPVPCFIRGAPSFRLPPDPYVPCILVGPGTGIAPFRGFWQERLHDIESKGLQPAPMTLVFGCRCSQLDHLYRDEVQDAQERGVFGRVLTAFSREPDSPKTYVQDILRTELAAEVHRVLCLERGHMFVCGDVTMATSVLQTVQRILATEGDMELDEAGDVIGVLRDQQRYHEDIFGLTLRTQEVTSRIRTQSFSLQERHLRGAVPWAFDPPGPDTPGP
Briefly: Inhibition of bovine recombinant eNOS expressed in Escherichia coli by hemoglobin capture assay.

In test [1] the target is T2, Nitric oxide synthase, inducible (Mus musculus, UniProt P29477).
T2 sequence (P29477 whole entry): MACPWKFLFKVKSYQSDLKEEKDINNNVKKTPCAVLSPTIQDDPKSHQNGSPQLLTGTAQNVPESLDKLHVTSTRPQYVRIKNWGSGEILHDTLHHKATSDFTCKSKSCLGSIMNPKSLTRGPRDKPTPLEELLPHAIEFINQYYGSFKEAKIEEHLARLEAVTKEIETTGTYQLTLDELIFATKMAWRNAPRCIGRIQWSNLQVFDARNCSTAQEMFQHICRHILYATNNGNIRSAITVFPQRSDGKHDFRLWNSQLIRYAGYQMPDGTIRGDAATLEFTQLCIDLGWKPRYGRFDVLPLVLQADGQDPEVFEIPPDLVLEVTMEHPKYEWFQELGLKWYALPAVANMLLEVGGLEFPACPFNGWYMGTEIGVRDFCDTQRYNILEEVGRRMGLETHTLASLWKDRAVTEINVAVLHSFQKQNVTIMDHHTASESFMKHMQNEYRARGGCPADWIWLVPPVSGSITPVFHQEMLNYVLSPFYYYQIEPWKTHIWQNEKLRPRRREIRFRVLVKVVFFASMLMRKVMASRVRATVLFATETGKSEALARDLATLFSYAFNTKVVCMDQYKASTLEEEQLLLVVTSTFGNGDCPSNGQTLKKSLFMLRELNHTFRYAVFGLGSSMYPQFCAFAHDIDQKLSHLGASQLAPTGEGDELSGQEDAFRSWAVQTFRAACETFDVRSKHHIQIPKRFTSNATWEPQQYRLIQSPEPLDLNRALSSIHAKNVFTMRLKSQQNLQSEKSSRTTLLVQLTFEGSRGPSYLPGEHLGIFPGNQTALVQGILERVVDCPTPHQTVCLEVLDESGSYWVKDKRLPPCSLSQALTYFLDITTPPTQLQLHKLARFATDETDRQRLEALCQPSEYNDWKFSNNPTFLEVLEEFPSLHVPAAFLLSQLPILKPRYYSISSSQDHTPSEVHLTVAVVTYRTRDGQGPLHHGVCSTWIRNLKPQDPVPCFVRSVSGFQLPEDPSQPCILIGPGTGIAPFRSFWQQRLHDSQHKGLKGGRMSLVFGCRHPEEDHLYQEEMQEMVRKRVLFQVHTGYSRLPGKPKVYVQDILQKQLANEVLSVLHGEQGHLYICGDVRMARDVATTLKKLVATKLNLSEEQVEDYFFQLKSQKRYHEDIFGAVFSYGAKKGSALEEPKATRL
Briefly: Inhibition of mouse recombinant iNOS expressed in Escherichia coli by hemoglobin capture assay.

Sequence of Nitric oxide synthase 1 (P29476 whole entry): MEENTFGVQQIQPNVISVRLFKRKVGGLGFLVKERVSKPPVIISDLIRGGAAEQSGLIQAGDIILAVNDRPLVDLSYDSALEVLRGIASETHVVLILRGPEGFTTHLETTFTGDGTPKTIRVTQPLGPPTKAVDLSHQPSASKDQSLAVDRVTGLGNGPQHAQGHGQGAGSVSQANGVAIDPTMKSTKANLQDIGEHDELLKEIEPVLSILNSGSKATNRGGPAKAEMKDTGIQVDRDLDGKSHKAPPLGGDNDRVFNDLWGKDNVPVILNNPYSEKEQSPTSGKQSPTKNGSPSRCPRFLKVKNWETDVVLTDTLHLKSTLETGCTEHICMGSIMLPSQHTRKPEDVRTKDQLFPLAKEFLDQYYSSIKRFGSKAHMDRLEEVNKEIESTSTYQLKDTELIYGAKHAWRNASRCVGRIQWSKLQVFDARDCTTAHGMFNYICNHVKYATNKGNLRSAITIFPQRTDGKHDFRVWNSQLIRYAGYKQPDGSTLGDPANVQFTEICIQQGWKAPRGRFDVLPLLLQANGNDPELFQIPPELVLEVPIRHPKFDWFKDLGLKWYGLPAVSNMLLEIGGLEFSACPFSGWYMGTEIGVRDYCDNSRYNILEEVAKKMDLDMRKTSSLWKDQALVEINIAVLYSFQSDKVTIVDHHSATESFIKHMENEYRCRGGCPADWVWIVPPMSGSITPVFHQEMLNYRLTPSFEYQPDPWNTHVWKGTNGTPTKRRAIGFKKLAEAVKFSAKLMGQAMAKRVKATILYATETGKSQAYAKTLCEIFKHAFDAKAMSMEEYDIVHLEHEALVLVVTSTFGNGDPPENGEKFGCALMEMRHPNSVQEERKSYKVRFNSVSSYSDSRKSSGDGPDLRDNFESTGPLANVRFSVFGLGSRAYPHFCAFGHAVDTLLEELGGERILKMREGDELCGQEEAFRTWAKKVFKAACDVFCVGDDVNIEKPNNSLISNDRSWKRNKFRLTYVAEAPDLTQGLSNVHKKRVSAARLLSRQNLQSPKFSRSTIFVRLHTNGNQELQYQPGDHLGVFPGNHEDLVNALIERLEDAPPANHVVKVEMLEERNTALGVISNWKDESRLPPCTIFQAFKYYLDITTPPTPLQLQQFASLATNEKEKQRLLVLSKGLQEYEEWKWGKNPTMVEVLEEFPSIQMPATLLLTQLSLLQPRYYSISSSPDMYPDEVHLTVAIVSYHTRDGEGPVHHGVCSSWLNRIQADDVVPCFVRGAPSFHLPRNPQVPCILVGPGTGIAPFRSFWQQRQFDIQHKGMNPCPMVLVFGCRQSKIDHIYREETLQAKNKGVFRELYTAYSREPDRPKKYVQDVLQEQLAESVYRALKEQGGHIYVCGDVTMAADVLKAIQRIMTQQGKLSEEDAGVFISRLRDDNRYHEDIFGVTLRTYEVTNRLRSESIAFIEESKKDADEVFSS

One may read the Ki as a measure of affinity in units of concentration, obtained from inhibition or displacement. `Nc1cccc(C[C@@H]2CNC[C@@H]2Oc2cccc(Oc3ccccc3)c2)n1` (racemic): the Ki on Nitric oxide synthase 1 is 3 µM.
Consider `Cc1cc(N)nc(C[C@@H]2CNC[C@@H]2OCc2ccc(-c3cccc(F)c3)cc2)c1` (racemic), for which the figures for the Ki (on Nitric oxide synthase 1; on Nitric oxide synthase 3; in test [1]) were 0.75 µM, 13.3 µM and 39.5 µM, respectively.
On the same counts, the results for `Cc1cc(N)nc(C[C@@H]2CNC[C@@H]2OCc2ccc(-c3cccc(Cl)c3)cc2)c1` (racemic) are 1.2 µM, 26 µM and 55.6 µM.
On to `Cc1cc(N)nc(C[C@@H]2CNC[C@@H]2OCc2ccc(-c3cccc(C(F)(F)F)c3)cc2)c1` (racemic), for which the Ki on Nitric oxide synthase 3 is 13.6 µM; in test [1] it was 37.3 µM.
Take `Cc1cc(N)nc(C[C@@H]2CNC[C@@H]2OCc2ccc(-c3ccc(F)c(C)c3)cc2)c1` (racemic): the Ki at Nitric oxide synthase 1 was 0.62 µM; in test [1] it was 22.1 µM.
Consider `Cc1cc(N)nc(C[C@@H]2CNC[C@@H]2OCc2ccc(-c3ccc(F)c(Cl)c3)cc2)c1` (racemic), for which the Ki at Nitric oxide synthase 1 came to 0.76 µM.
